logP	SMILES
3.67	Cc1ccc(-c2nc3ccccc3[nH]2)cc1
4.82	CC(C)(C)c1ccc(-c2nc3ncccc3[nH]2)cc1
3.48	COc1ccc(Cc2nc3cc([N+](=O)[O-])ccc3[nH]2)cc1
5.21	Cc1ccc(Cc2nc3cc(Cl)ccc3[nH]2)cc1
3.42	CCc1ccc(-c2nc3ncccc3[nH]2)cc1
3.02	Cc1ccc(-c2nc3ncccc3[nH]2)cc1
4.1	Cc1ccc(-c2nc3cc([N+](=O)[O-])ccc3[nH]2)c(C)c1
3.02	COc1ccccc1-c1nc2ccccc2[nH]1
3.2	Nc1ccc(Cc2nc3cc(Cl)ccc3[nH]2)cc1
2.52	Fc1ccc(-c2nc3ncccc3[nH]2)cc1
5.18	Clc1ccc(Cc2nc3cc(Cl)ccc3[nH]2)cc1
3.42	Cc1ccccc1-c1nc2cc([N+](=O)[O-])ccc2[nH]1
3.78	COc1ccc(-c2nc3cc(C)ccc3[nH]2)c(OC)c1
2.95	Clc1ccc(-c2nc3ncccc3[nH]2)cc1
5.38	Clc1ccc2[nH]c(Cc3ccc(Br)cc3)nc2c1

From the OPERA property sets (Mansouri et al. 2018)
